Target: T1, human Edg 1 receptor (Homo sapiens, UniProt P21453)
T1 construct: expressed in transfected cells; membrane preparation
Assay: GTP-γ-S assay using human Edg 1 receptors (scintillation proximity assay, CHO Flp-In membrane preparation)
Format: biochemical
Settings: test compound at 10 μM; high control 10 μM S1P regarded as 100% activation; background-corrected; triplicate; read-out: % activation (Edg 1 receptor activation in percent of the activation by 10 μM S1P)
Description: Determination of the Pharmacological Activity A) GTP-γ-S Assay Using Human Edg 1 Receptors
In order to determine the Edg 1 receptor activation by the compounds of the invention, a GTP-γ-S ((GTP-γ-S=guanosine 5′-[thio]triphosphate) assay for G-protein coupled receptor binding based on the scintillation proximity assay principle was used, employing a cell membrane preparation from a CHO Flp-In cell line which constitutively overexpresses the human Edg 1 receptor.
The Flp-In™ expression system (Invitrogen, cat. no. K6010-01) allows the generation of stable mammalian cell lines into which the gene of interest has been integrated through homologous recombination at a specific genomic location called Flp Recombination Target (FRT) site by means of a Flp recombinase encoded by the pOG44 expression plasmid. The integration of the pcDNA5/FRT expression construct into the Flp-In host cell line genome results in the transcription of the gene of interest. The stably transfected cells become hygromycin-resistant.
One day prior to transfection, 200 000 Flp-In-CHO cells were seeded in Ham F-12 medium (Invitrogen, cat. no. 31765) supplemented with 10% fetal calf serum (FCS; Perbio Science, cat. no. SH30068.03) in a 6-well plate and incubated at 37° C./5% CO2 overnight. Using the FuGENE® 6 transfection reagent (Roche, cat. no. 11988387001), cells were cotransfected with the Flp recombinase expression plasmid pOG44 and a modified plasmid additionally containing the edg 1 gene (accession no. NM_001400) termed as pcDNA5-FRT-TO_nFLAG_DEST-EDG 1 with a 9:1 ratio. To obtain the modified pcDNA5-FRT-TO_nFLAG_DEST plasmid, the Invitrogen plasmid pcDNA5/FRT/TO (Invitrogen, cat. no. V6520-20) was adapted to the Gateway® (Invitrogen) cloning system by inserting a Gateway cassette containing attR recombination sites flanking a ccdB gene and a chloramphenicol-resistance gene (Gateway conversion system, Invitrogen, cat. no. 11828-029). In addition a FLAG tag epitope was added before the 5′ att recombination site to allow recombinant expression of N-terminally FLAG-tagged proteins.
For the transfection of one well, 1.08 μg of pOG44 and 0.12 μg of pcDNA5-FRT-TO_nFLAG_DEST-EDG 1 were mixed with 100 μl of serum-free Ham F-12 medium containing 6 μl of FuGENE® 6 transfection reagent. After 20 min of incubation, the transfection reagent/DNA complex was distributed dropwise on the cells. The cells were incubated for 24 h at 37° C. Then the cells from 3 wells were transferred to a T75 flask (Greiner Cellstar®, cat. no. 658175) containing Ham F-12 medium supplemented with 10% of FCS but without antibiotic and were incubated for another 24 h. 48 h after transfection, the medium was replaced by selection medium (Ham F-12 supplemented with 10% of FCS and 300 μg/ml of hygromycin B (Invitrogen, cat. no. 10687-010)). The medium was exchanged every 2 to 3 days until a resistant population of cells had grown. […] After 2 weeks of selection, the cells were transferred into T175 flasks (Greiner Cellstar®, cat. no. 660175) and cultivated for batch production. Cells were harvested from the culture flasks by short treatment (2 to 5 min) with Accutase (PAA, cat. no. L^11-007), resuspended in selection medium (see above) and centrifuged at 200×g for 5 min. Cells were resuspended in a mixture of 90% of FCS and 10% of dimethyl sulfoxide and stored frozen in liquid nitrogen.
A membrane preparation was obtained by standard methods from the afore-described CHO Flp-In cell line constitutively overexpressing the human Edg 1 receptor. Briefly, the cryopreserved cells were taken in culture and grown until confluency in T175 cell culture flasks (Becton Dickinson, cat. no. 35 5001). […]

T1 sequence (P21453 whole entry): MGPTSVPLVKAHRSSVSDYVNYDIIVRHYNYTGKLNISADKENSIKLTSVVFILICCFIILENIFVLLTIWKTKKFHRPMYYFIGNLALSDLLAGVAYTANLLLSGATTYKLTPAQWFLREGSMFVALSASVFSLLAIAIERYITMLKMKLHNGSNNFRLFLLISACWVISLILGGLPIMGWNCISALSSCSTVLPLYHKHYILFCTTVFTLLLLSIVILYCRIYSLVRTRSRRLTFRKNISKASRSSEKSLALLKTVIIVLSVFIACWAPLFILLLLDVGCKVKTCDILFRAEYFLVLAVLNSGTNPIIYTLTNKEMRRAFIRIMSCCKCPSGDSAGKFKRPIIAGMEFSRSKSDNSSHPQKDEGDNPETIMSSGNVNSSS

| activation at 10 µM | SMILES |
| --- | --- |
| 99% | CCOc1nc(Oc2cc(F)ccc2C)nc2oc(-c3cc(C)c(OCC(=O)N4CCC[C@H]4C(=O)O)c(C)c3)nc12 [Example 14, (S)-1-(2-{4-[7-Ethoxy-5-(5-fluoro-2-methylphenoxy)oxazolo[5,4-d]pyrimidin-2-yl]-2,6-dimethylphenoxy}acetyl)pyrrolidine-2-carboxylic acid] |
| 100% | CCOc1nc(Oc2cccc(F)c2)nc2oc(-c3cc(C)c(OCC(=O)N4CCC[C@H]4C(=O)O)c(C)c3)nc12 [Example 11, (S)-1-(2-{4-[7-Ethoxy-5-(3-fluorophenoxy)oxazolo[5,4-d]pyrimidin-2-yl]-2,6-dimethylphenoxy}acetyl)pyrrolidine-2-carboxylic acid] |
| 108% | CCCOc1nc(Oc2ccccc2)nc2oc(-c3cc(C)c(OCC(=O)N4CCC[C@H]4C(=O)O)c(C)c3)nc12 [Example 8, (S)-1-{2-[2,6-Dimethyl-4-(5-phenoxy-7-propoxyoxazolo[5,4-d]pyrimidin-2-yl)phenoxy]acetyl}pyrrolidine-2-carboxylic acid] |
| 69% | CCOc1nc(Oc2cccc(Cl)c2)nc2oc(-c3cc(C)c(OCC(=O)N4CCC[C@H]4C(=O)O)c(C)c3)nc12 [Example 10, (S)-1-(2-{4-[5-(3-Chlorophenoxy)-7-ethoxyoxazolo[5,4-d]pyrimidin-2-yl]-2,6-dimethylphenoxy}acetyl)pyrrolidine-2-carboxylic acid] |
| 95% | CCOc1nc(Oc2cc(F)ccc2F)nc2oc(-c3cc(C)c(OCC(=O)N4CCC[C@H]4C(=O)O)c(C)c3)nc12 [Example 13, (S)-1-(2-{4-[5-(2,5-Difluorophenoxy)-7-ethoxyoxazolo[5,4-d]pyrimidin-2-yl]-2,6-dimethylphenoxy}acetyl)pyrrolidine-2-carboxylic acid] |
| 128% | CCCOc1nc(Oc2cccc(Cl)c2)nc2oc(-c3cc(C)c(OCC(=O)N4CCC[C@H]4C(=O)O)c(C)c3)nc12 [Example 9, (S)-1-(2-{4-[5-(3-Chlorophenoxy)-7-propoxyoxazolo[5,4-d]pyrimidin-2-yl]-2,6-dimethylphenoxy}acetyl)pyrrolidine-2-carboxylic acid] |
| 101% | CCCOc1nc(Oc2cc(F)ccc2F)nc2oc(-c3cc(C)c(OCC(=O)N4CCC[C@H]4C(=O)O)c(C)c3)nc12 [Example 1, (S)-1-(2-{4-[5-(2,5-Difluorophenoxy)-7-propoxyoxazolo[5,4-d]pyrimidin-2-yl]-2,6-dimethylphenoxy}acetyl)pyrrolidine-2-carboxylic acid] |
| 70% | CCOc1nc(Oc2ccccc2F)nc2oc(-c3cc(C)c(OCC(=O)N4CCC[C@H]4C(=O)O)c(C)c3)nc12 [Example 12, (S)-1-(2-{4-[7-Ethoxy-5-(2-fluorophenoxy)oxazolo[5,4-d]pyrimidin-2-yl]-2,6-dimethylphenoxy}acetyl)pyrrolidine-2-carboxylic acid] |
| 79% | CCCOc1nc(Oc2ccc(C)c(F)c2)nc2oc(-c3cc(C)c(OCC(=O)N4CCC[C@H]4C(=O)O)c(C)c3)nc12 [Example 5, (S)-1-(2-{4-[5-(3-Fluoro-4-methylphenoxy)-7-propoxyoxazolo[5,4-d]pyrimidin-2-yl]-2,6-dimethylphenoxy}acetyl)pyrrolidine-2-carboxylic acid] |

The remaining lines, values behind:

| SMILES | activation at 10 µM |
| --- | --- |
| CCCOc1nc(OC2CCCC[C@H]2F)nc2oc(-c3cc(C)c(OCC(=O)N4CCC[C@H]4C(=O)O)c(C)c3)nc12 (stereo partly drawn) [Example 2, (S)-1-(2-{4-[5-(trans-2-fluorocyclohexyloxy)-7-propoxyoxazolo[5,4-d]pyrimidin-2-yl]-2,6-dimethylphenoxy}acetyl)pyrrolidine-2-carboxylic acid] | 97% |
| CCCOc1nc(Oc2ccccc2F)nc2oc(-c3cc(C)c(OCC(=O)N4CCC[C@H]4C(=O)O)c(C)c3)nc12 [Example 3, (S)-1-(2-{4-[5-(2-Fluorophenoxy)-7-propoxyoxazolo[5,4-d]pyrimidin-2-yl]-2,6-dimethylphenoxy}acetyl)pyrrolidine-2-carboxylic acid] | 96% |
| CCCOc1nc(N(C)CCC(F)(F)F)nc2oc(-c3cc(C)c(OCC(=O)N4CCC[C@H]4C(=O)O)c(C)c3)nc12 [Example 15, (S)-1-[2-(2,6-Dimethyl-4-{5-[methyl-(3,3,3-trifluoropropyl)amino]-7-propoxyoxazolo[5,4-d]pyrimidin-2-yl}phenoxy)acetyl]pyrrolidine-2-carboxylic acid] | 42% |
| CCCOc1nc(OCC2CCC2)nc2oc(-c3cc(C)c(OCC(=O)N4CCC[C@H]4C(=O)O)c(C)c3)nc12 [Example 16, (S)-1-{2-[4-(5-Cyclobutylmethoxy-7-propoxyoxazolo[5,4-d]pyrimidin-2-yl)-2,6-dimethylphenoxy]acetyl}pyrrolidine-2-carboxylic acid] | 85% |
| CCCOc1nc(Oc2ccc(F)cc2F)nc2oc(-c3cc(C)c(OCC(=O)N4CCC[C@H]4C(=O)O)c(C)c3)nc12 [Example 7, (S)-1-(2-{4-[5-(2,4-Difluorophenoxy)-7-propoxyoxazolo[5,4-d]pyrimidin-2-yl]-2,6-dimethylphenoxy}acetyl)pyrrolidine-2-carboxylic acid] | 90% |
| CCCOc1nc(Oc2cc(F)ccc2C)nc2oc(-c3cc(C)c(OCC(=O)N4CCC[C@H]4C(=O)O)c(C)c3)nc12 [Example 4, (S)-1-(2-{4-[5-(5-Fluoro-2-methylphenoxy)-7-propoxyoxazolo[5,4-d]pyrimidin-2-yl]-2,6-dimethylphenoxy}acetyl)pyrrolidine-2-carboxylic acid] | 110% |
| CCCOc1nc(Oc2cccnc2)nc2oc(-c3cc(C)c(OCC(=O)N4CCC[C@H]4C(=O)O)c(C)c3)nc12 [Example 6, (S)-1-(2-{2,6-Dimethyl-4-[7-propoxy-5-(pyridin-3-yloxy)oxazolo[5,4-d]pyrimidin-2-yl]phenoxy}acetyl)pyrrolidine-2-carboxylic acid] | 112% |

— patent US8846691B2, “Heterocyclic carboxylic acid derivatives having a 2,5,7-substituted oxazolopyrimidine ring” (Sanofi, priority 2010, dated 2014)
